Here are results for one compound from article PMC11509018, “Evaluation of the Role of Tanshinone I in an In Vitro System of Charcot-Marie-Tooth Disease Type 2N” (International Journal of Molecular Sciences, 2024).

The experiment has as its target T1, AlaRS R329H binding to Nrp1 (Homo sapiens, UniProt P49588, R329H).
T1 construct: expressed in transfected cells
T1 sequence (P49588 1-968 R329H): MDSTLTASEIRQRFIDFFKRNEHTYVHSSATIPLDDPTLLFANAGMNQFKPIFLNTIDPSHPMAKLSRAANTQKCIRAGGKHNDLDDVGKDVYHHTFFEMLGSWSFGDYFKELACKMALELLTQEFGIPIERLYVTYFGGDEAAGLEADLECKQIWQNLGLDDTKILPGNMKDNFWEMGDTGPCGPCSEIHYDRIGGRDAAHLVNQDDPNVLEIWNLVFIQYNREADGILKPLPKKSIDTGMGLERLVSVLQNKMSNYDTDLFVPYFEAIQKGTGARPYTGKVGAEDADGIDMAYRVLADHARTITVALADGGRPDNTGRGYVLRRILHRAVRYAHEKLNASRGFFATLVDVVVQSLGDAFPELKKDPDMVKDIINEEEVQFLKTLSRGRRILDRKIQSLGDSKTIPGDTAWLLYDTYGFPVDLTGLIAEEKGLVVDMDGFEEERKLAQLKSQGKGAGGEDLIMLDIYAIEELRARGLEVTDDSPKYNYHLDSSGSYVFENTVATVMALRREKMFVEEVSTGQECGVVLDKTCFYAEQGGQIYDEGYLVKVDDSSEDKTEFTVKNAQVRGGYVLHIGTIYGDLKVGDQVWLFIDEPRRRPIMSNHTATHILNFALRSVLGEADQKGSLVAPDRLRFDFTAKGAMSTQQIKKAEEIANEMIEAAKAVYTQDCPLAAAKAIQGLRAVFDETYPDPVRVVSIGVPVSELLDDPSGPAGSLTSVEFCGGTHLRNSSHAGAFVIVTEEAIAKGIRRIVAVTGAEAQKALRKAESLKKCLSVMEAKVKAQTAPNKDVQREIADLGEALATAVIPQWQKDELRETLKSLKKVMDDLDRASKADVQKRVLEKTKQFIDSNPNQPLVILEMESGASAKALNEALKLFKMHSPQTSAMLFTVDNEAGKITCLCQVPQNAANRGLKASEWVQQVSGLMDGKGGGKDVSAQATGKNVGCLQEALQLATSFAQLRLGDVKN
The experiment in a line: Co-IP of HA-AlaRS mutant with Nrp1 in transfected cells. Format: cell-based. Particulars: 20 µM Tanshinone I for 24 h, ImageJ, average of three repeats. On the procedure:
To further investigate whether Tanshinone I-induced conformational changes in AlaRS CMT mutants affect their interaction with Nrp1, Co-IP experiments were performed in cells treated with Tanshinone I. By comparing Co-IP results obtained before and after treatment, we assessed the influence of the drug on the binding strength and mode between the AlaRS CMT mutants and Nrp1. […] To confirm the direct effect of Tanshinone I on the interaction between AlaRS CMT mutants and Nrp1, pull-down experiments were performed. […] Given that the interaction between AlaRS mutants and Nrp1 is associated with disease progression in CMT, the ability of Tanshinone I to disrupt this binding highlights its potential to intervene in the pathogenic mechanisms of these diseases.
Figure 7 The impact of Tanshinone I on the interaction between AlaRS mutants and Nrp1. (A) Co-IP assays were conducted to assess the binding between HA-AlaRS mutants and Nrp1, both with and without treatment with 20 µM Tanshinone I for 24 h. […] (C) Pull down assay was performed to detect the binding between AlaRS mutants and GST-Nrp1 b1 with or without 20 µM Tanshinone I. (D) Relative quantification statistics of the AlaRS mutants pulled down from the GST pull down experiments after Tanshinone I treatment were performed using ImageJ. (E) The cell viability of 293T and NSC34 cells treated with different concentrations of Tanshinone I was assessed using the CCK-8 assay over a 24 h period. TEXT PRINTED IN THE PICTURE: (B) Tanshinone I: Mean density band (N71Y): 0.60; Mean density band (G102R): 0.53; Mean density band (R326W): 0.50; Mean density band (R329H): 0.50; Mean density band (E337K): 0.62 | (D) Tanshinone I: Mean density band (N71Y): 0.82; Mean density band (G102R): 0.76; Mean density band (R326W): 0.84; Mean density band (R329H): 0.84; Mean density band (E337K): 0.90
Total protein was extracted from cells using RIPA buffer (50 mM Tris-HCl pH 7.4, 150 mM NaCl, 1% NP40, 1 mM EDTA) supplemented with a protease and phosphatase inhibitor cocktail (Roche, Basel, Switzerland). After SDS-PAGE, the protein on the gel was transferred to a PVDF membrane (Bio-Rad, Hercules, CA, USA) and then blocked with 5% non-fat dry milk in TBST for 1 h. Then, the membranes were incubated with the indicated primary antibodies and corresponding HRP-conjugated secondary antibodies. Signals were detected using the Bio-Rad ChemiDoc system (Bio-Rad, Shanghai, China). The following antibodies were used: Flag (Ray antibody biotech, Beijing, China, 1:3000), HA (Ray antibody biotech, Beijing, China, 1:3000), and GAPDH (Ray antibody biotech, Beijing, China, 1:5000).
To detect the binding of Nrp1 and AlaRS mutants in cells, whole-cell lysates (500 μg) were treated overnight with 2 μg of anti-Flag antibody in RIPA buffer. Next, Protein A/G agarose beads (#sc-2003, Santa Cruz Biotechnology, Santa Cruz, CA, USA) were applied to the lysates and the samples were further treated for 8–12 h with rotation. Samples were washed three times with RIPA buffer. Subsequently, the immunoprecipitations were resuspended into 2 × SDS-loading buffer. The samples were then boiled for 10 min and detected using Western blot. The experiment was repeated three times.

As to `Cc1coc2c1C(=O)C(=O)c1c-2ccc2c(C)cccc12` [Tanshinone I], the “Mean density band (R329H), relative quantification of AlaRS mutant immunoprecipitated” value came out at 0.50.
